Laboratory results from patent US20260053801A1, “METHOD FOR TREATING AUTOPHAGY DEPENDENT CANCER WITH A PIKFYVE INHIBITOR” (The Regents of the University of Michigan, priority 2023, published 2026).

Experiments:
[1] = tested on: 7940B orthotopic tumors; assay: 7940B syngeneic orthotopic model in C57BL/6 mice; format: in vivo, mouse; settings: ESK981 30 mg/kg QD PO, trametinib 1 mg/kg QD PO
[2] = tested on: MIA-PaCa-2 human PDAC cell line xenograft; assay: MIA-PaCa-2 PDAC xenograft (CDX) in SCID mice; format: in vivo; settings: Day 36 versus Day 1
Protocol: (§1) For xenograft studies, 6-10-week-old CB17 severe combined immunodeficiency (SCID) mice obtained from the University of Michigan breeding colony were used. For syngeneic studies, 6-10-week-old C57BL6 mice obtained from Jackson Laboratories were used. Subcutaneous tumors were established at both sides of the dorsal flank of the mice by injecting 1×10^6 cells in […] of 50:50 Matrigel and serum-free media. Tumors were measured 2-3 times per week using digital calipers following the formula (π/6) (L×W2), where L=length and W=width of the tumor. At the end of the studies, mice were sacrificed, and tumors extracted and weighed.
Terminal dUTP Nick End Labeling (TUNEL) staining was performed with an In Situ Cell Death Detection Kit (TMR Red #12156792910; Roche Applied Science) following the manufacturer's instructions. Briefly, fixed sections were permeabilized using Triton X-100 followed by PBS washing. The labelling reaction was performed at 37° C. for 1 hour by addition of the reaction buffer containing enzymes. Images were acquired using a Zeiss Axiolmager M1 microscope.
Given the enhanced autophagy dependence of PDAC and the urgent need for new therapies, ESK981 was investigated for efficacy in combatting this type of cancer. […]

[3] = tested on: NCI-H660 NEPC cell line-derived xenografts; assay: NCI-H660 NEPC xenograft in SCID mice; format: in vivo; settings: 46 days of treatment, 30 mg/kg
Protocol: as §1
Given the hypoxic and nutrient-depleted environments of NEPC Guo et al., Nat Commun. 2019; 10(1):278; Qi et al., Cancer Cell. 2010; 18(1):23-38., it was hypothesized that NEPC may be dependent on autophagy and sensitive to PIKfyve inhibition by ESK981. To test this NEPC prostate patient-derived xenograft (PDX) of NCI-H660, LTL331R, and LTL610 were subcutaneously grown into non-castrated SCID mice until tumors reached an average size of 100 mm^3, after which mice were randomized into two groups. Mice in each group received either vehicle or 30 mg/kg ESK981 five days per week. […] The anti-tumor effect of ESK981 was in turn confirmed in two additional NEPC PDX models including LTL331R (FIGS. 12-14) and LTL610 xenografts (FIG. 15-17). […]

[4] = tested on: LTL545 NEPC PDX tumors; assay: LTL545 NEPC PDX model; settings: mouse, in vivo
[5] = tested on: MIA PaCa-2, PANC-1, and 7940B cell lines; assay: Confluence assays of ND646 with PIKfyve inhibitors; format: cell-based, human and mouse; settings: ND646 100 nM (MIA PaCa-2, PANC-1), 1000 nM (7940B)
Protocol: (§2) Cells were seeded in a clear 96-well plate overnight prior to treatment. Upon treatment with indicated compounds, plates were incubated in an Incucyte S3 2022 Rev1 (Sartorious), with 10× images taken every 4 hours, and well confluence was analyzed to assess for proliferation.

[6] = target: T1, ACC1 (Homo sapiens, UniProt Q13085); assay: Immunoblot of ACC1 phosphorylation status upon ND646; format: cell-based; settings: MIA PaCa-2, PANC-1, 7940B cells
T1 construct: endogenous in cells; host or cells: MIA PaCa-2 (human PDAC)
Protocol: Cell lysates were prepared in RIPA buffer (ThermoFisher Scientific) supplemented with Halt™ Protease and Phosphatase Inhibitor Cocktail (ThermoFisher Scientific). Total protein was measured by DC™ Protein Assay Kit II (BIO-RAD). An equal amount of protein was resolved in NuPAGE™ 3 to 8%, Tris-Acetate Protein Gel (ThermoFisher Scientific) or NuPAGE™ 4 to 12%, Bis-Tris Protein Gel (ThermoFisher Scientific), blocked with 5% nonfat dry milk in TBS-T and blotted with primary antibodies overnight. Following incubation with HRP-conjugated secondary antibodies, membranes were imaged on an Odyssey CLx Imager (LiCOR Biosciences).

[7] = tested on: 7940B cells; assay: Real-time oxygen consumption rate (Resipher) in 7940B cells; format: cell-based, mouse; settings: apilimod 100 nM, ESK981 1000 nM, bafilomycin 100 nM, chloroquine 100 μM
Protocol: Real-time monitoring of basal oxygen consumption rate was performed using a Resipher (Lucid Scientific). […] Immediately following treatment with an additional 50 μl of medium (for a total of 100 μl), OCR monitoring was started by placing the Resipher device on the cells, which was incubated at 37° C. and 5% CO2 for 24 hours.

[8] = tested on: PDAC cells (7940B, PANC-1, Panc 04.03); assay: Rescue of antiproliferative effects with ferric ammonium citrate (FAC); format: cell-based, human and mouse; settings: with ferric ammonium citrate and ferrostatin-1 (1 μM)
Protocol: as §2

SMILES: CC(C)Cn1c2ccc(Nc3ncccn3)cc2c2c3c(c4c(c21)CCc1nn(C)cc1-4)C(=O)NC3 [ESK981, 13-isobutyl-4-methyl-10-(pyrimidin-2-ylamino)-1,2,4,7,8,13-hexahydro-6H-indazolo[5,4-a]pyrrolo[3,4-c]carbazol-6-one]
- mouse body weight throughout the treatment course [1]: did not impact mouse body weight
- rate of tumor regression (waterfall plot) [2]: 64%
- adverse events [3]: no adverse events were observed
- individual tumors regressed (waterfall plot) [4]: 80%
- tumors cured [4]: 80%

SMILES: COc1ccccc1[C@H](Cn1c(=O)n(C(C)(C)C(N)=O)c(=O)c2c(C)c(-c3ncco3)sc21)OC1CCOCC1 [ND646]
- sensitization to ESK981 (confluence) ([5]; ESK981 30 nM or 100 nM): sensitized
- sensitization to apilimod (confluence) ([5]; apilimod 100 nM or 50 nM): sensitized
- phosphorylation status of ACC1 (p-ACC1) [6]: on-target effects

SMILES: CO/C1=C\C(C)=C\[C@@H](C)[C@@H](O)[C@@H](C)C/C(C)=C/C=C/[C@H](OC)[C@@H]([C@@H](C)[C@@H](O)[C@H](C)[C@@]2(O)C[C@@H](O)[C@H](C)[C@@H](C(C)C)O2)OC1=O [bafilomycin A1]
- OCR through 24 hours of treatment [7]: significantly decreased OCR
- antiproliferative effects upon addition of FAC [8]: drastically attenuated

SMILES: CC(=O)Nc1cccc(-n2c(=O)n(C3CC3)c(=O)c3c(Nc4ccc(I)cc4F)n(C)c(=O)c(C)c32)c1 [trametinib]
- mouse body weight throughout the treatment course [1]: did not impact mouse body weight
